Measured values taken from patent publication US10808235B2, “Beta-glucosidase and uses thereof” (priority 2015, dated 2020).

What was measured:
Type in all cases: biochemical
[1] = molecular target: Rasamsonia emersonii beta-glucosidase variant polypeptide 1 (SEQ ID NO: 2 with substitutions M90L + M335V + M485I) (Rasamsonia emersonii, UniProt Q8TGI8, M335V/M485I/M90L); assay: Kinetics of cellobiose hydrolysis with and without 20 g/l glucose (NMR, MTP scale, model fit), variant polypeptide 1; conditions: 10 g/l cellobiose, pH 4.5, 65° C., 20 min; Km set to 0.1 g/L
Rasamsonia emersonii beta-glucosidase variant polypeptide 1 (SEQ ID NO: 2 with substitutions M90L + M335V + M485I), sequence (Q8TGI8 entry or part of it M90L/M335V/M485I): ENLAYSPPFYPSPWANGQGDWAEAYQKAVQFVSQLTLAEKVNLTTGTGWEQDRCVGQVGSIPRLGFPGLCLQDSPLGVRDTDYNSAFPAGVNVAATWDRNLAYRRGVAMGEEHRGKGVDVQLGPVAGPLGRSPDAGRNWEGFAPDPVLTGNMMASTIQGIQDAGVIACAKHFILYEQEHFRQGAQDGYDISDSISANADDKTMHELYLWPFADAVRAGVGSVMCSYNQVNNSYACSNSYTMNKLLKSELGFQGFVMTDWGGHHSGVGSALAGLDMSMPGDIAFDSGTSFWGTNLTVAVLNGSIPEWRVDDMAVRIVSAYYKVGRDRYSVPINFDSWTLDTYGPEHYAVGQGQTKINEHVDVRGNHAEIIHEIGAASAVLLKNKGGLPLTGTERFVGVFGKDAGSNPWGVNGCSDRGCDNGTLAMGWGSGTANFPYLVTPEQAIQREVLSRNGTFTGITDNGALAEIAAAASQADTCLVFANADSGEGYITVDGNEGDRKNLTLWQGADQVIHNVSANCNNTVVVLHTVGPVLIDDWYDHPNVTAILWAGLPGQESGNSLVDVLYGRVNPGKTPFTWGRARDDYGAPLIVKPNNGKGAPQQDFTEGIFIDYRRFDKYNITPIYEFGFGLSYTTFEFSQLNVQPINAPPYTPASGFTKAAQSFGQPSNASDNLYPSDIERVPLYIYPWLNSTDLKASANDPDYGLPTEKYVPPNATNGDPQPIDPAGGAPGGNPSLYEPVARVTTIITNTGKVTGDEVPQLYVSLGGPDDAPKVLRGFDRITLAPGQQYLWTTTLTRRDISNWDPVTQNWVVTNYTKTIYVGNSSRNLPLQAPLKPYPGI
Experimental: (§1) For the follow-up experiment, five dilutions were made: 2-fold, 4-fold, 8-fold, 16-fold and 32-fold. The beta-glucosidase activity of the variant polypeptides and the wild-type beta-glucosidase was further analyzed in a MTP scale activity assay using cellobiose as substrate and monitoring cellobiose hydrolysis via glucose formation with NMR of the undiluted sample and the five dilutions. The same assay was performed for all dilutions in presence of 20 g/l glucose to determine the glucose tolerance. […] Subsequently, cellobiose and glucose levels in the samples were analyzed with NMR.
(§2) After enzymatic incubation, 100 μl of internal standard solution containing 20 g/I maleic acid and EDTA (40 g/L) in demineralized water, was added to each sample. […] 1D ^1H NMR spectra were recorded on a Bruker Avance III HD 500 MHz, equipped with a He cooled cryo-probe, using a pulse program without water suppression at a temperature of 29° C. with a 90 degrees excitation pulse, acquisition time of 2.7 s and relaxation delay of 30 s. The analyte concentrations (in g/L) were calculated based on the following signals (δ relative to DSS): Cellobiose: H1′ cellobiose peak at 4.50 ppm (d, 1H, J=8 Hz); Glucose: α-H1 glucose/α-H1 cellobiose peak at 5.22 ppm (d, 0.38 H, J=4 Hz). The glucose concentration was determined after correction for cellobiose. […]

[2] = molecular target: T1, Rasamsonia emersonii beta-glucosidase, wild-type, SEQ ID NO: 2 (Rasamsonia emersonii, UniProt Q8TGI8); assay: Kinetics of cellobiose hydrolysis with and without 20 g/l glucose (NMR, MTP scale, model fit), wild type; conditions: 10 g/l cellobiose, pH 4.5, 65° C., 20 min; Km set to 0.1 g/L
T1 sequence (Q8TGI8 20-857): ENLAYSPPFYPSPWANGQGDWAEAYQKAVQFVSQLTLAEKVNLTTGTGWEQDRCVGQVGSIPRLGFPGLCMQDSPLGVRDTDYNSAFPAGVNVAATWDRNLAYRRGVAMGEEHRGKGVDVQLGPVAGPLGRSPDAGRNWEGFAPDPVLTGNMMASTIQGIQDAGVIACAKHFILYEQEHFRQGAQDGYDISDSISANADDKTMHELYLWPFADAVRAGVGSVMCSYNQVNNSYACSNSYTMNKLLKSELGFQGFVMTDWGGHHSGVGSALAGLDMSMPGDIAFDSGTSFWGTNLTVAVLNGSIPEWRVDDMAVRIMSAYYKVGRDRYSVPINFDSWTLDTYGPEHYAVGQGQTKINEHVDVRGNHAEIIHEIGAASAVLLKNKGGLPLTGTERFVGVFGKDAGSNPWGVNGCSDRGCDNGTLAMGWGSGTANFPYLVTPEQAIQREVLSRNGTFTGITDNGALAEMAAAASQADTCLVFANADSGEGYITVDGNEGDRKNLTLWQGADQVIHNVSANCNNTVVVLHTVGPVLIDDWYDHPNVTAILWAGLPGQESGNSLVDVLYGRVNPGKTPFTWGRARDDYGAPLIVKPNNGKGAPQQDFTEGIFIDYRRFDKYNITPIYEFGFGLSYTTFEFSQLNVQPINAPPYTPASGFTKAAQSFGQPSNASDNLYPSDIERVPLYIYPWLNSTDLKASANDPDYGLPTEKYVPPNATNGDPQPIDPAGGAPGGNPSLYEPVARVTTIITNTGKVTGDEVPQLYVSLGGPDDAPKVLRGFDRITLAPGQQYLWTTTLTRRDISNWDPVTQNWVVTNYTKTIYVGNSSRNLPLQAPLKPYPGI
Experimental: as §1, §2

[3] = molecular target: Rasamsonia emersonii beta-glucosidase variant polypeptide 2 (SEQ ID NO: 2 with substitution N103A) (Rasamsonia emersonii, UniProt Q8TGI8, N103A); assay: Kinetics of cellobiose hydrolysis with and without 20 g/l glucose (NMR, MTP scale, model fit), variant polypeptide 2; conditions: 10 g/l cellobiose, pH 4.5, 65° C., 20 min; Km set to 0.1 g/L
Rasamsonia emersonii beta-glucosidase variant polypeptide 2 (SEQ ID NO: 2 with substitution N103A), sequence (Q8TGI8 entry or part of it N103A): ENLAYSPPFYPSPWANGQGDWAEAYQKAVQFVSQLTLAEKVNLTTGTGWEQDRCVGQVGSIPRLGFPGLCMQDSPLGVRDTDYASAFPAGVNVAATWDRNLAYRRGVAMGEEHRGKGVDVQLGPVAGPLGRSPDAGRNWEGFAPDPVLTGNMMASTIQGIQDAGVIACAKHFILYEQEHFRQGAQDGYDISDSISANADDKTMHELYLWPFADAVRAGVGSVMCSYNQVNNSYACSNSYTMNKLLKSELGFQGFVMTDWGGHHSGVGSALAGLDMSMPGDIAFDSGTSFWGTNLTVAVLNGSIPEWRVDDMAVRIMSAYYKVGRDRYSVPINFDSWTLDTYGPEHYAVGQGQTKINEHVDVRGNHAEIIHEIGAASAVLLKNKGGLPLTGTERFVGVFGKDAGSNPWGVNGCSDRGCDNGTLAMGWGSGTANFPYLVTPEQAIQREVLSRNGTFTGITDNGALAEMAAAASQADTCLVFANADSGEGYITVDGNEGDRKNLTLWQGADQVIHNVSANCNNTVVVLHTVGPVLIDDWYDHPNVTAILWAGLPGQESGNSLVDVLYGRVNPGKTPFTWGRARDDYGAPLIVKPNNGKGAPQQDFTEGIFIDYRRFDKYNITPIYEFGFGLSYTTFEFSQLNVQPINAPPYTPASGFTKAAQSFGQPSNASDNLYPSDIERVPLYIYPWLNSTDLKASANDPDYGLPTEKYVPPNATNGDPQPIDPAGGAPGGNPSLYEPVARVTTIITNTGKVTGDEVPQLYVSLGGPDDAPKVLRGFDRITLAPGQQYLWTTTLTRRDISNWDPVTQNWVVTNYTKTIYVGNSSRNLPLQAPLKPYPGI
Experimental: as §1, §2

[4] = molecular target: Rasamsonia emersonii beta-glucosidase variant polypeptide 3 (SEQ ID NO: 2 with substitution G142S) (Rasamsonia emersonii, UniProt Q8TGI8, G142S); assay: Kinetics of cellobiose hydrolysis with and without 20 g/l glucose (NMR, MTP scale, model fit), variant polypeptide 3; conditions: 10 g/l cellobiose, pH 4.5, 65° C., 20 min; Km set to 0.1 g/L
Rasamsonia emersonii beta-glucosidase variant polypeptide 3 (SEQ ID NO: 2 with substitution G142S), sequence (Q8TGI8 entry or part of it G142S): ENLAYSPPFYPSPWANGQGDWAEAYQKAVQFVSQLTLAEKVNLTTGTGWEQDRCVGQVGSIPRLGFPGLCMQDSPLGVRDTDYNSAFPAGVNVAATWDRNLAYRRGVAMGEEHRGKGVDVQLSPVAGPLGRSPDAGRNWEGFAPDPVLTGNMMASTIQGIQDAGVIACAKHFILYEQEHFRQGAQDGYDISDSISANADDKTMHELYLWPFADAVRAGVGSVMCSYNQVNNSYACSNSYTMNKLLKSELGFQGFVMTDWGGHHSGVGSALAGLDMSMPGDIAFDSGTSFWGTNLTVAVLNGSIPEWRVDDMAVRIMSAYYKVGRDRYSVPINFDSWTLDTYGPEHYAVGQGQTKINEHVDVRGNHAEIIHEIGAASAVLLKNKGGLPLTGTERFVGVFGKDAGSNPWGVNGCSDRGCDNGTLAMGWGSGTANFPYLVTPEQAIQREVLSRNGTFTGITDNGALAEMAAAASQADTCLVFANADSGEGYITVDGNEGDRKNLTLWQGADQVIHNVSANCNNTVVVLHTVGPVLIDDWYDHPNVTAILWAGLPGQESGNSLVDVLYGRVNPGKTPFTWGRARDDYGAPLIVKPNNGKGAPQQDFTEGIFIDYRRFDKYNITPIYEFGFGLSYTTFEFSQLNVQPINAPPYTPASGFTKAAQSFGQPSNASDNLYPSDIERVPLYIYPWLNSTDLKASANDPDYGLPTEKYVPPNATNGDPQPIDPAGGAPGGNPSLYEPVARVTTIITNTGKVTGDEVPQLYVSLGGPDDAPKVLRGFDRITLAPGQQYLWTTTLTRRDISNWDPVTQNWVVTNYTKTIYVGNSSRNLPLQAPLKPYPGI
Experimental: as §1, §2

[5] = molecular target: Rasamsonia emersonii beta-glucosidase variant polypeptide 4 (SEQ ID NO: 2 with substitution L606A) (Rasamsonia emersonii, UniProt Q8TGI8, L606A); assay: Kinetics of cellobiose hydrolysis with and without 20 g/l glucose (NMR, MTP scale, model fit), variant polypeptide 4; conditions: 10 g/l cellobiose, pH 4.5, 65° C., 20 min; Km set to 0.1 g/L
Rasamsonia emersonii beta-glucosidase variant polypeptide 4 (SEQ ID NO: 2 with substitution L606A), sequence (Q8TGI8 entry or part of it L606A): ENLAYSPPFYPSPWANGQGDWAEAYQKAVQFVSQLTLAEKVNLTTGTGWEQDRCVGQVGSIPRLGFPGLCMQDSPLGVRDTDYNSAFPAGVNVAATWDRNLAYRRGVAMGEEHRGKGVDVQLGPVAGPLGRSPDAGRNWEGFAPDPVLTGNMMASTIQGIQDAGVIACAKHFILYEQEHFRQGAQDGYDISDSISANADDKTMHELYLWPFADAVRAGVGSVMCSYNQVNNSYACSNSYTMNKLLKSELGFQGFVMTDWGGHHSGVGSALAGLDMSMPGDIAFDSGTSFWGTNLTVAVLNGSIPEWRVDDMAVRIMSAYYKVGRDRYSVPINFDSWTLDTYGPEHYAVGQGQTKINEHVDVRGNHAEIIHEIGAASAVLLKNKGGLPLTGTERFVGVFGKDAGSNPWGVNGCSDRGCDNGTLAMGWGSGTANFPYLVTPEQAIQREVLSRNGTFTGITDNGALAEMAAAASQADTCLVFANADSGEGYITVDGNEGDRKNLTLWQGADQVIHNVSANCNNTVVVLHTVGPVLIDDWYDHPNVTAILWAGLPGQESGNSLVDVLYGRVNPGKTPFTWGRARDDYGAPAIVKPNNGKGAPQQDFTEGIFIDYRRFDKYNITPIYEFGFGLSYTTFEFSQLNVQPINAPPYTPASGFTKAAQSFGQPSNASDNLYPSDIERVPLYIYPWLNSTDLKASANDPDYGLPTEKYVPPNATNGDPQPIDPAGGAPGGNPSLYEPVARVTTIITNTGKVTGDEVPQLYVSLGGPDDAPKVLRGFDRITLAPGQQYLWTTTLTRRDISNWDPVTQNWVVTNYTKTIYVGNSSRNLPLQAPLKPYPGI
Experimental: as §1, §2

[6] = molecular target: T1, Rasamsonia emersonii beta-glucosidase, wild-type, SEQ ID NO: 2; assay: Glucose inhibition of initial rate of cellobiose hydrolysis, 100 ml scale (HPLC), wild type; conditions: 20 g/l glucose, 30 mM cellobiose, pH 4.5, 62° C., 4.5 μg/ml enzyme; read-out: Ratio (V0 in presence of glucose/V0 in absence of glucose)
Experimental: The hits selected from the MTP scale assay were subsequently further characterized by monitoring cellobiose conversion at multiple time points at a larger scale. The beta-glucosidase having the amino acid sequence of SEQ ID NO: 2 was used as reference (parent/wild-type beta-glucosidase). The assay was done as follows: the variant polypeptides and the reference beta-glucosidase were incubated at a concentration of 4.5 μg/ml in a 100 mM NaAc-buffer pH 4.5 with 30 mM cellobiose in a final volume of 100 ml for 2 hours at 62° C. under continuous stirring. […] The glucose and cellobiose content of the samples was determined using a High-Performance Liquid Chromatography System (Agilent 1100) equipped with a refection index detector (Agilent 1260 Infinity). […] The glucose and cellobiose were identified and quantified according to the retention time, which was compared to the external glucose and cellobiose standards ranging from 0.2; 0.4; 1.0; 2.0 g/l.
The concentration cellobiose was plotted against time and the linear part of this curve (the linear part of the cellobiose hydrolysis) was used to calculate the V0 (the initial rate of cellobiose hydrolysis) in the presence and absence of 20 g/l glucose. The ratio of these two calculated rates (V0 in presence of glucose/V0 in absence of glucose) was calculated for the wild-type beta-glucosidase and the variant polypeptides and is listed in Table 2. […]

Structure (SMILES)	kcat (cellobiose), model prediction [1] [unitless]	kcat (cellobiose), model prediction [2] [unitless]	kcat (cellobiose), model prediction [3] [unitless]	kcat (cellobiose), model prediction [4] [unitless]	kcat (cellobiose), model prediction [5] [unitless]	activity at 20000 µg/mL [6] [%]
OC[C@H]1O[C@@H](O[C@H]2[C@H](O)[C@@H](O)C(O)O[C@@H]2CO)[C@H](O)[C@@H](O)[C@@H]1O (stereo partly drawn) [cellobiose]	0.9	1.0	1.1	0.8	2.7	
OC[C@H]1OC(O)[C@H](O)[C@@H](O)[C@@H]1O (stereo partly drawn) [glucose]						18
